In paper PMC7870075, “Physicochemical properties and formulation development of a novel compound inhibiting Staphylococcus aureus biofilm formation” (PLoS ONE, 2021):
≈ marks a conversion by molar mass, not a printed value. Marks after values point to notes of the source that are not given here.

Experiments:
[1] = Effect of pH on CCG-211790 degradation; type: physicochemical; conditions: for CCG-211790 concentration: 37°C; for chemical stability: twelve weeks
Method: The concentration of CCG-211790 in deionized water or aqueous solutions was determined using an Agilent series 1100 HPLC system (Agilent Technologies, Santa Clara, CA, USA) equipped with diode array detector. Sample separation was carried out with a Kinetex C18 column (75 mm × 3 mm, particle size 2.6 μm, Phenomenex Inc., Torrance, CA, USA). The mobile phase of acetonitrile-water (50:50, v/v) was used for chromatographic separation. The flow rate was set to 0.5 mL/min, column temperature to 35°C. The absorption was measured at wavelength 255 nm. The injection volume was 30 μL. The retention time of CCG-211790 was 4.9 min. The method detection limit was 0.02 mg/L. Calibration curves were established giving a correlation coefficient >0.9900. Effect of pH on CCG-211790 degradation was investigated at indicated pH (1–10) over a period of three months. Briefly, pH 1, 2 or 10 were achieved by dissolving CCG-211790 bulk powder in a mixture of acetonitrile and water (25:75, v/v) with the pH being adjusted with hydrochloride acid solution (12 mole/L) or sodium hydroxide solution (15 mole/L). Similarly, pH 3–9 were achieved by dissolving CCG-211790 powder in a mixture of acetonitrile and PBS (25:75, v/v) with the pH also being adjusted with the hydrochloride acid solution or the sodium hydroxide solution. All samples were incubated at 37°C. CCG-211790 concentrations in the mixture solutions were determined via HPLC analysis at predetermined time points (0, 2, 4 and 12 weeks).

Microsomal stability = type: in vitro ADME; conditions: mouse liver microsomes, NADPH, 37°C; read-out: half-life in mouse liver microsomes (t1/2)
Method: Microsomal stability assay was performed as previously described. CCG-211790 (100 mM stock solution in DMSO) was diluted 1000-fold with phosphate-buffered saline (PBS) containing up to 10% MeOH as a co-solvent. Compound (100 μM) was added to 366 μL of 100 mM phosphate buffer containing 3.3 mM MgCl2 and 10 μL of 20 mg/mL mouse liver microsomal extract (XenoTech, Lenexa, KS, USA). Enzymatic oxidation was initiated by adding 15 μL of 16.7 mg/mL NADPH in 100 mM phosphate buffer containing 3.3 mM MgCl2. The reactions were carried out at 37°C for 60 min. Aliquots of the reaction mixture (30 μL) were sampled and the reaction was stopped by adding 90 μL cold acetonitrile containing an internal standard compound at each time point (0, 1, 3, 5, 10, 30, and 60 min). The quenched sample mixtures were centrifuged at 16,000 g for 10 min. The supernatant was then analyzed via an LC–MS/MS system equipped with a reverse-phase column.

Solubility in water = type: physicochemical
Method: The concentration of CCG-211790 in deionized water or aqueous solutions was determined using an Agilent series 1100 HPLC system (Agilent Technologies, Santa Clara, CA, USA) equipped with diode array detector. Sample separation was carried out with a Kinetex C18 column (75 mm × 3 mm, particle size 2.6 μm, Phenomenex Inc., Torrance, CA, USA). The mobile phase of acetonitrile-water (50:50, v/v) was used for chromatographic separation. The flow rate was set to 0.5 mL/min, column temperature to 35°C. The absorption was measured at wavelength 255 nm. The injection volume was 30 μL. The retention time of CCG-211790 was 4.9 min. The method detection limit was 0.02 mg/L. Calibration curves were established giving a correlation coefficient >0.9900. To determine the solubility of CCG-211790 in water, an excess amount of CCG-211790 powder was added into water. […] The sample aliquots (0.5 mL each) were centrifuged at 20,000 ×g for 5 min with Amicon Ultra-0.5 Centrifugal Filter Units (MWCO 3000 Da, Millipore Corp., Billerica, MA, USA). Solutions passing through the filter were diluted 2-fold with acetonitrile and CCG-211790 concentration in water was determined by HPLC analysis. The experiment was run in triplicate with mean values and standard deviations being reported.

CCG-211790 concentration ([1]; pH 1, 0 week, acetonitrile/water): 11.1 µg/mL | CCG-211790 concentration ([1]; pH 1, 2 weeks, acetonitrile/water): 9.4 ^* μg/mL | CCG-211790 concentration ([1]; pH 1, 4 weeks, acetonitrile/water): 7.2 ^** μg/mL | CCG-211790 concentration ([1]; pH 1, 12 weeks, acetonitrile/water): 2.1 ^** μg/mL | chemical stability ([1]; pH 1, 37°C): degraded | CCG-211790 concentration ([1]; pH 2, 0 week, acetonitrile/water): 11.6 µg/mL | CCG-211790 concentration ([1]; pH 2, 2 weeks, acetonitrile/water): 11.9 µg/mL | CCG-211790 concentration ([1]; pH 2, 4 weeks, acetonitrile/water): 11.2 ^* μg/mL | CCG-211790 concentration ([1]; pH 2, 12 weeks, acetonitrile/water): 10.7 ^* μg/mL | chemical stability ([1]; pH 2–10, 37°C): maintained most chemical stability | CCG-211790 concentration ([1]; pH 3, 0 week, acetonitrile/PBS): 11.9 µg/mL | CCG-211790 concentration ([1]; pH 3, 2 weeks, acetonitrile/PBS): 11.9 µg/mL | CCG-211790 concentration ([1]; pH 3, 4 weeks, acetonitrile/PBS): 11.4 µg/mL | CCG-211790 concentration ([1]; pH 3, 12 weeks, acetonitrile/PBS): 11.7 µg/mL | CCG-211790 concentration ([1]; pH 4, 0 week, acetonitrile/PBS): 10.9 µg/mL | CCG-211790 concentration ([1]; pH 4, 2 weeks, acetonitrile/PBS): 11.4 µg/mL | CCG-211790 concentration ([1]; pH 4, 4 weeks, acetonitrile/PBS): 11.6 ^* μg/mL | CCG-211790 concentration ([1]; pH 4, 12 weeks, acetonitrile/PBS): 11.3 µg/mL | CCG-211790 concentration ([1]; pH 5, 0 week, acetonitrile/PBS): 11.0 µg/mL | CCG-211790 concentration ([1]; pH 5, 2 weeks, acetonitrile/PBS): 11.3 ^* μg/mL | CCG-211790 concentration ([1]; pH 5, 4 weeks, acetonitrile/PBS): 11.5 µg/mL | CCG-211790 concentration ([1]; pH 5, 12 weeks, acetonitrile/PBS): 11.2 µg/mL | CCG-211790 concentration ([1]; pH 6, 0 week, acetonitrile/PBS): 11.1 µg/mL | CCG-211790 concentration ([1]; pH 6, 2 weeks, acetonitrile/PBS): 11.4 µg/mL | CCG-211790 concentration ([1]; pH 6, 4 weeks, acetonitrile/PBS): 11.0 µg/mL | CCG-211790 concentration ([1]; pH 6, 12 weeks, acetonitrile/PBS): 10.1 µg/mL | CCG-211790 concentration ([1]; pH 7, 0 week, acetonitrile/PBS): 11.8 µg/mL | CCG-211790 concentration ([1]; pH 7, 2 weeks, acetonitrile/PBS): 11.2 ^* μg/mL | CCG-211790 concentration ([1]; pH 7, 4 weeks, acetonitrile/PBS): 10.9 ^* μg/mL | CCG-211790 concentration ([1]; pH 7, 12 weeks, acetonitrile/PBS): 11.5 µg/mL | CCG-211790 concentration ([1]; pH 8, 0 week, acetonitrile/PBS): 11.2 µg/mL | CCG-211790 concentration ([1]; pH 8, 2 weeks, acetonitrile/PBS): 11.2 µg/mL | CCG-211790 concentration ([1]; pH 8, 4 weeks, acetonitrile/PBS): 11.1 µg/mL | CCG-211790 concentration ([1]; pH 8, 12 weeks, acetonitrile/PBS): 11.6 µg/mL | CCG-211790 concentration ([1]; pH 9, 0 week, acetonitrile/PBS): 11.0 µg/mL | CCG-211790 concentration ([1]; pH 9, 2 weeks, acetonitrile/PBS): 11.3 ^* μg/mL | CCG-211790 concentration ([1]; pH 9, 4 weeks, acetonitrile/PBS): 11.2 µg/mL | CCG-211790 concentration ([1]; pH 9, 12 weeks, acetonitrile/PBS): 10.5 µg/mL | CCG-211790 concentration ([1]; pH 10, 0 week, acetonitrile/water): 10.4 µg/mL | CCG-211790 concentration ([1]; pH 10, 2 weeks, acetonitrile/water): 11.0 ^* μg/mL | CCG-211790 concentration ([1]; pH 10, 4 weeks, acetonitrile/water): 10.5 µg/mL | CCG-211790 concentration ([1]; pH 10, 12 weeks, acetonitrile/water): 10.7 ^* μg/mL | half-life (Microsomal stability): 19.6 min | solubility class according to the definition of US Pharmacopeia (Solubility in water; solubility less than 100 μg/mL): practically insoluble | solubility at 20 h (Solubility in water; thermodynamic from solid, room temperature, 20 h, HPLC): 0.038 ± 0.01 µg/mL (≈ 0.0988 µM)
SMILES: COc1ccc2c(c1)-c1nc(SCC(F)(F)F)n(C)c(=O)c1C(C)(C)C2 [CCG-211790, 9-Methoxy-3,5,5-trimethyl-2-((2,2,2-trifluoroethyl)thio)-5,6-dihydrobenzo[h]quinazolin-4(3H)-one]
